Common to all, as to format: cell-based
In one assay the test system is P. aeruginosa PA07/wt. Briefly: Broth microdilution MIC, P. aeruginosa PA07/wt. As to the method:
(§1) All liquids and media were sterilized by autoclaving (121° C., 15 min) before use. All aqueous solutions and media were prepared using distilled, deionized, and filtered water (Millipore Milli-Q Advantage A10 Water Purification System) Mueller-Hinton No. 2 broth (MHII broth; cation adjusted) was purchased from Sigma-Aldrich (St. Louis, Mo.). Iron-deficient (−Fe) MHII broth was prepared by adding 0.8 mL of a 1 mg/mL sterile aq. solution of 2,2′-bipyridine to 49.2 mL of MHII broth. Iron-rich (+Fe) MHII broth was prepared by adding 0.8 mL of a 1 mg/mL sterile aq. solution of FeCl3 to 49.2 mL of MH II broth.
(§2) Antibacterial activity of the compounds was determined by measuring their minimum inhibitory concentrations (MIC90's) using the broth microdilution method according to the Clinical and Laboratory Standards Institute (CLSI, formerly the NCCLS) guidelines. Each well of a 96-well microtiter plate was filled with 40 μL of sterile broth media (−Fe or +Fe). Each test compound was dissolved in DMSO making a 10 mM solution, and then diluted with sterile broth media (−Fe or +Fe) to 75 or 150 μM. Exactly 80 μL of the compound solution was added to the first well of the microtiter plate and 1.5-fold serial dilutions were made down each row of the plate. Exactly 40 μL of bacterial inoculum (Acinetobacter baumannii, Pseudomonas aeruginosa, Staphylococcus aureus Starting Optical density (OD)=0.0005) was then added to each well giving a total volume of 80 μL/well. The plate was incubated at 37° C. for 48 h and then each well was examined for bacterial growth. The MIC90 was recorded as the lowest compound concentration (μM) required to inhibit 90% of bacterial growth as judged by turbidity of the culture media relative to a row of wells filled with a DMSO standard.
For orientation: Broth dilution looks for growth in wells or tubes with falling amounts of substance.

The next assay relates to P. aeruginosa PA14/wt. Nature of the assay: Broth microdilution MIC, P. aeruginosa PA14/wt. As to the method:
as §1, §2

The next assay deals with P. aeruginosa PAO01/fptA. Briefly: Broth microdilution MIC, P. aeruginosa PAO01/fptA mutant. The settings on record: mutation in pyochelin outer membrane receptor precursor. How it is done:
as §1, §2

Assay [1] relates to Pseudomonas aeruginosa PA7 (DSM 24068). Nature of the assay: Broth microdilution MIC, Pseudomonas aeruginosa. How it is done:
as §1, §2
(§3) Compounds HHY-10 and HHY-11 were subjected to further assays to determine their minimum inhibitory concentrations (MIC) in both iron-rich and iron-deficient media (Table 1). […] Compounds 10 and 11 were also tested against Klebsiella pneumoniae (DSM 11678, ATCC 33495), which is able to synthesize and utilize enterobactin and its degraded product for iron uptake under iron-limited conditions. […] It appears that P. aeruginosa, A. baumannii, Straph aureus and K. pneumoniae, either induced or inherently, have different abilities to use triscatecholate as a siderophore for iron uptake. The inhibitory activities of vancomycin siderophore-DOTA conjugate HHY-30 have been analyzed under similar conditions.

Assay [2] relates to Acinetobacter baumannii (DSM 30007, ATCC 19606). Briefly: Broth microdilution MIC, Acinetobacter baumannii. How it is done: as §1, §2, §3
Assay [3] has as its system Staphylococcus aureus MRSA (DSM 11822, ICB 25701). Nature of the assay: Broth microdilution MIC, Staphylococcus aureus. As to the method:
as §1, §2, §3

The subject of assay [4] is Klebsiella pneumoniae (DSM 11678, ATCC 33495). Nature of the assay: Broth microdilution MIC, Klebsiella pneumoniae. How it is done:
as §1, §2, §3

The next assay concerns P. aeruginosa PA01/pirA. Nature of the assay: Broth microdilution MIC, P. aeruginosa PA01/pirA mutant. To be noted: mutant with defect in ferric enterobactin receptor (pirA). How it is done:
as §1, §2

Another assay has as its system Acinetobacter baumannii. Nature of the assay: Uptake in bacteria by confocal fluorescent microscopy. To be noted: 20 μM probe, 1 hour at 37° C., PBS. As to the method:
The uptake of coumarin 343, HHY-10 and HHY-11 was investigated in gram-negative bacteria Pseudomonas aeruginosa PA7 (DSM 24068), Acinetobacter baumannii (DSM 30007, ATCC 19606) and gram-positive bacteria Staphylococcus aureus MRSA (DSM 11822, ICB 25701). Gram-negative bacteria were cultured overnight in Mueller Hinton Broth (M-H Broth)+1% glucose (10 g/L) or Gram-positive bacteria were cultured overnight in trypticase soy yeast extract medium (TSY-Med) at 37° C. under 5% CO2 in an incubator shaker set at 180 rpm. Bacteria (from the overnight culture) were re-suspended in 10 mL of PBS buffer, to an optical density of 0.1 at 600 nm. The bacterial culture solution was transferred into 48 well plates, with each well containing 200 μL of bacteria, and 0.4 μL of either coumarin 343, HHY-10 and HHY-11 stock solutions (10 mM in PBS) were added, generating a 20 μM probe concentration. The bacteria were incubated with the probes for 1 hour at 37° C. under 5% CO2 in an incubator without shaking. The bacteria were harvested by centrifuging the bacterial solutions. The resulting pellets were washed 3 times with 200 μL PBS by resuspending the pellets in PBS and centrifuging. The washed bacterial pellets were transferred into a slice, then imaged using confocal fluorescent microscopy. The intensity of the green signal from coumarin presents the relevant amount of these probes taken by the bacteria.

In another assay the test system is P. aeruginosa PA01/wt. Briefly: Broth microdilution MIC, P. aeruginosa PA01/wt. How it is done:
as §1, §2

The test system of assay [5] is Pseudomonas aeruginosa PA7, Acinetobacter baumannii, Staphylococcus aureus MRSA. Briefly: Bacterial inhibition assays, across the bacteria tested. As to the method: as §1
Antibacterial activity of the compounds was determined by measuring their minimum inhibitory concentrations (MIC90's) using the broth microdilution method according to the Clinical and Laboratory Standards Institute (CLSI, formerly the NCCLS) guidelines. Each well of a 96-well microtiter plate was filled with 40 μL of sterile broth media (−Fe or +Fe). Each test compound was dissolved in DMSO making a 10 mM solution, and then diluted with sterile broth media (−Fe or +Fe) to 75 or 150 μM. […]
Compounds HHY-10 and HHY-11 were subjected to further assays to determine their minimum inhibitory concentrations (MIC) in both iron-rich and iron-deficient media (Table 1). […] The inhibitory activities of vancomycin siderophore-DOTA conjugate HHY-30 have been analyzed under similar conditions.

Where [6] appears, read: Fe− (iron-deficient MHII broth).

≈ marks a conversion by molar mass, not a printed value. Where two headings read alike, the source gives them in different places.

One may read the MIC as the least concentration at which growth counts as inhibited. For `O=C(O)c1cc2cc3c4c(c2oc1=O)CCCN4CCC3` [Coumarin 343, reference compound], the MIC against P. aeruginosa PA07/wt (Fe+ (iron-rich MHII broth)), against P. aeruginosa PA07/wt (setting [6]), with P. aeruginosa PA14/wt (Fe+ (iron-rich MHII broth)), against P. aeruginosa PA14/wt (setting [6]), against P. aeruginosa PAO01/fptA (Fe+ (iron-rich MHII broth)) and in the assay on P. aeruginosa PAO01/fptA (setting [6]) was more than 100 µM throughout. Moreover, the MIC in [1] (Fe+ (iron-rich MHII broth)), in [1] (setting [6]), in assay [2] (Fe+ (iron-rich MHII broth)), in [2] (setting [6]), in [3] (Fe+ (iron-rich MHII broth)) and in assay [3] (setting [6]) was more than 100 µM throughout. The minimal inhibitory concentration (MIC) (in [4] (Fe+ (iron-rich MHII broth)); in assay [4] (setting [6]); against P. aeruginosa PA01/pirA (Fe+ (iron-rich MHII broth)); against P. aeruginosa PA01/pirA (setting [6]); with P. aeruginosa PA01/wt (Fe+ (iron-rich MHII broth)); in the assay with P. aeruginosa PA01/wt (setting [6])) was more than 100 µM throughout. In the assay on Acinetobacter baumannii, the “uptake: fluorescence (green signal from coumarin) in bacteria” value is given as “would not lead to obvious fluorescence”. For the same compound, the “MIC (generally inactive)” value in assay [5] (across bacteria) is more than 100 µM.
Regarding `CC(=O)Oc1cccc(C(=O)NCCNC(=O)CN2CCN(CC(=O)NCCCOCCOCCOCCCNC(=O)c3cc4cc5c6c(c4oc3=O)CCCN6CCC5)CCN(CC(=O)NCCNC(=O)c3cccc(OC(C)=O)c3OC(C)=O)CCN(CC(=O)NCCNC(=O)c3cccc(OC(C)=O)c3OC(C)=O)CC2)c1OC(C)=O` [HHY-10], the MIC against P. aeruginosa PA07/wt (Pseudomonas aeruginosa, PA07/WT, Fe+ (iron-rich MHII broth)) is more than 100 µM; with P. aeruginosa PA07/wt (Pseudomonas aeruginosa, PA07/WT, Fe− (iron-deficient MHII broth)) it was 40 µM (≈ 66.4 µg/mL); against P. aeruginosa PA14/wt (Pseudomonas aeruginosa, PA14, Fe+ (iron-rich MHII broth)), more than 100 µM; against P. aeruginosa PA14/wt (Pseudomonas aeruginosa, PA14, Fe− (iron-deficient MHII broth)) it was 40 µM (≈ 66.4 µg/mL); against P. aeruginosa PAO01/fptA (Pseudomonas aeruginosa, PAO01/FPTA, Fe+ (iron-rich MHII broth)), more than 100 µM; in the assay on P. aeruginosa PAO01/fptA (Pseudomonas aeruginosa, PAO01/FPTA, Fe− (iron-deficient MHII broth)), 40 µM (≈ 66.4 µg/mL). Also, the minimum inhibitory concentration (MIC) in assay [1] (Pseudomonas aeruginosa, DSM24068, Fe+ (iron-rich MHII broth)) was more than 100 µM; in [1] (Pseudomonas aeruginosa, DSM24068, Fe− (iron-deficient MHII broth)), 33 µM (≈ 54.8 µg/mL); in [2] (Acinetobacter baumannii, Fe+ (iron-rich MHII broth)), more than 100 µM; in assay [2] (Acinetobacter baumannii, Fe− (iron-deficient MHII broth)) it was 15 µM (≈ 24.9 µg/mL); in assay [3] (Staphylococcus aureus, Fe+ (iron-rich MHII broth)) it was more than 100 µM; in [3] (Staphylococcus aureus, Fe− (iron-deficient MHII broth)), 28 µM (≈ 46.5 µg/mL). The MIC in assay [4] (setting [6]) is more than 100 µM; in assay [4] (Klebsiella pneumoniae), more than 100 µM; in assay [4] (Klebsiella pneumoniae, read-out: MIC (inactive against K. pneumoniae)), more than 100 µM; against P. aeruginosa PA01/pirA (Pseudomonas aeruginosa, PA01/PIRA, Fe+ (iron-rich MHII broth)), more than 100 µM; with P. aeruginosa PA01/pirA (Pseudomonas aeruginosa, PA01/PIRA, Fe− (iron-deficient MHII broth)) it was 40 µM (≈ 66.4 µg/mL); in the assay on P. aeruginosa PA01/wt (Pseudomonas aeruginosa, PA01/WT, Fe+ (iron-rich MHII broth)), more than 100 µM. In addition, the MIC against P. aeruginosa PA01/wt (Pseudomonas aeruginosa, PA01/WT, Fe− (iron-deficient MHII broth)) was found to be 40 µM (≈ 66.4 µg/mL). Also, the “uptake: fluorescence (green signal from coumarin) in bacteria” value in the assay on Acinetobacter baumannii is given as “obvious fluorescent signals”. Also, in assay [5] (iron-deficient medium), the antibacterial activity result was “media antibacterial activity”.
